For data set [1] the following is noted: cited from earlier work.
Data set [2] in a line: Fluorescence readings of doxorubicin loading solutions with folic acid (plate reader). It is filed as physicochemical. The note with it: for % Fluorescence Em λ590 nm / % Fluorescence Em λ620 nm: excitation 485 nm. The procedure:
The solutions were incubated at room temperature overnight and then were filtered through a 0.1 μm filter, to sterilize the solutions and to remove any particulates.
On the following day the fluorescence of an aliquot of each solution was measured with a fluorescence plate reader (excitation wavelength: 485 nm, emission wavelengths: 590 nm and 620 nm). Concomitantly, minicells were washed with PBS buffer and then were loaded with one or another of each of the Dox+FA solutions, previously prepared at a density of 2.5×10^10 minicells/ml, in a volume between about 1 ml to 2 mls. Samples (500 μl) were taken from each of the treatment groups at the time points of 30 minutes, 1 hour, 2 hours, 4 hours, 6 hours, and overnight.

For data set [3], the system named is MDA-MB-468 human breast cancer cells. Briefly: Incubation of non-targeted doxorubicin-loaded minicells (small-scale protocol) with cancer cells, confocal microscopy. It is filed as cell-based. The note with it: 1×10^8 non-targeted doxorubicin-loaded minicells (small-scale protocol), 10^4 cells per well; within two days. The procedure: Upon overnight incubation with the drug (about 1 ml/mg) at 37° C. with rotation, the loaded minicells were subjected five times to a washing step that entailed centrifugation (13,200 rpm, 10 minutes) and resuspension of the resultant pellet in 1 ml BSG buffer (pH 7.4).
The washed, doxorubicin-loaded minicells (1×10^8) then were incubated with estrogen receptor-negative MDA-MB-468 human breast cancer cells (10^4 cells per well) in Gibco RPMI-1640 tissue culture medium (in 0.5 ml per well) supplemented with 10% Fetal Bovine Serum, 2 mM L-glutamine, and 100 U/ml of both penicillin G and streptomycin.
The cells were monitored subsequently every 24 hours via confocal microscopy.

Data set [4] concerns intact, bacterially derived minicells. Briefly: Flow cytometry of dye-packaged minicells (FL1 channel). Details: species or system Salmonella enterica serovar Typhimurium. Conditions: BacLight Green 200 nM, 30 minutes, room temperature. The procedure:
Minicells packaged with BacLight™ Green were analyzed by flow cytometry (Beckman Coulter FC500). Empty minicells and BacLight™ Green-packaged minicells were labeled with an anti-LPS alexa fluor 647 (AF647) antibody. Firstly, the minicells were analyzed using the FL4 channel to detect anti-LPS AF647-stained minicells. The minicell population was visualized in a dot plot using FL4 fluorescence versus forward scatter, and the population was gated to select anti-LPS AF647 stained minicells only, disregarding any debris.
The gated population was analyzed on the FL1 channel, to detect BacLight™ Green fluorescence.
Minicells loaded with SYTO 9® were analyzed by flow cytometry (Beckman Coulter FC500). Empty minicells and SYTO® 9-stained minicells were labeled with an anti-LPS alexa fluor 647 (AF647) antibody. Firstly, the minicells were analyzed using the FL4 channel to detect anti-LPS AF647-stained minicells. The minicell population was visualized in a dot plot, using FL4 fluorescence versus forward scatter, and the population was gated to select anti-LPS AF647-stained minicells only, disregarding any debris. The gated population then was analyzed on the FL1 channel, to detect SYTO 9 fluorescence.
For orientation: Flow cytometry measures light scatter and fluorescence of single cells or particles in a stream.

Where a name gives a salt, the structure may show the parent alone.

In the case of `O=C1c2c(O)ccc(O)c2C(=O)c2c(NCCNCCO)ccc(NCCNCCO)c21` [MTX, mitoxantrone dihydrochloride], in data set [1], the solubility in water was 5000 to 7500 µg/mL.

In the case of doxorubicin, the “% Fluorescence Em λ590 nm” value turned out to be 100% in data set [2] (0 μg/ml FA, Dox 100 pg/ml in PBS); 93% in data set [2] (50 μg/ml FA); 61% in data set [2] (400 μg/ml FA). Besides, the “% Fluorescence Em λ620 nm” value in data set [2] (0 μg/ml FA) stood at 100%; in data set [2] (50 μg/ml FA), 94%; in data set [2] (400 μg/ml FA), 59%. Also, the “doxorubicin emission fluorescence lost” value in data set [2] (50 μg/ml folic acid) is 6-7%. Also, the “doxorubicin fluorescence emission signal lost” value in data set [2] (400 μg/ml of folic acid) is listed as roughly 40%. In addition, the “doxorubicin entry into cancer cells (confocal microscopy)” value in data set [3] is listed as “red fluorescence in their nuclei”.

Consider `CN1C(=CC=Cc2n(Cc3ccc(CCl)cc3)c3cc(Cl)c(Cl)cc3[n+]2Cc2ccc(CCl)cc2)Oc2ccccc21.[Cl-]` [BacLight™ Green], for which, in data set [4], the “minicells that are fluorescent” value was “greater than 95%”.

Source of the values: patent publication US11052157B2 (priority 2014, dated 2021).
